Counter-ions that a name gives are not always drawn. Like-named read-outs stand apart in the source and are kept apart here.
Assays:
[1] = Toxicity (LD100); assay type: in vivo
[2] = test system: Serratia marcescens; assay: Activity in vitro: Minimum inhibitory concentration; assay type: cell-based; settings: read-out: Minimum inhibitory concentration
Excerpt: (§1) Activity in vitro: Minimum inhibitory concentration

[3] = test system: Escherichia coli; assay: as above; assay type: cell-based; settings: read-out: Minimum inhibitory concentration
Excerpt: as §1

[4] = test system: Pseudomonas aeruginosa strain 2; assay: as above; assay type: cell-based
Excerpt: as §1

[5] = test system: Haemophilus influenzae; assay: as above; assay type: cell-based; settings: read-out: Minimum inhibitory concentration
Excerpt: as §1

[6] = test system: Staphylococcus aureus; assay: as above; assay type: cell-based; settings: read-out: Minimum inhibitory concentration
Excerpt: as §1

[7] = test system: Pseudomonas aeruginosa strain 1; assay: as above; assay type: cell-based
Excerpt: as §1

[8] = test system: Proteus vulgaris; assay: as above; assay type: cell-based; settings: read-out: Minimum inhibitory concentration
Excerpt: as §1

[9] = test system: Enterobacter cloacae; assay: as above; assay type: cell-based; settings: read-out: Minimum inhibitory concentration
Excerpt: as §1

[10] = test system: Proteus mirabilis; assay: as above; assay type: cell-based; settings: read-out: Minimum inhibitory concentration
Excerpt: as §1

[11] = test system: Neisseria gonorrhoeae; assay: as above; assay type: cell-based; settings: read-out: Minimum inhibitory concentration
Excerpt: as §1

[12] = in vitro, lactamase forming strain

In the case of `CO/N=C(\C(=O)N[C@@H]1C(=O)N2C(C(=O)O)=C(CSc3nc(=O)c(C)nn3C)CS[C@H]12)c1csc(N)n1` [Product B, (6R,7R)-7-[2-(2-amino-4-thiazolyl-2-[(Z)-methoxyimino]acetamido]-3-[[(2,5-dihydro-2,6-dimethyl-5-oxo-as-triazin-3-yl)thio]methyl]-8-oxo-5-thia-1-azabicyclo[4.2.0]oct-2-ene-2-carboxylic acid sodium salt], the LD100 ([1]; i.v.) is reported as 500 mg/kg, the LD100 ([1]; p.o.) is reported as > 5000 mg/kg and the LD100 ([1]; s.c.) is reported as > 4000 mg/kg. For the same compound, the MIC [2, 12] was 0.32 µg/mL, the MIC [3, 12] was 0.08 µg/mL and the MIC ([4]; in vitro, Pseudomonas aeruginosa strain 2, lactamase forming strain, read-out: Minimum inhibitory concentration) was 80 µg/mL. The MIC ([5]; in vitro) was 0.02 µg/mL, the MIC ([6]; in vitro) was 2.5 µg/mL and the MIC ([7]; in vitro, Pseudomonas aeruginosa strain 1, lactamase forming strain, read-out: Minimum inhibitory concentration) was 80 µg/mL. It also gave an MIC [8, 12] of 0.02 µg/mL, an MIC [9, 12] of 2.5 µg/mL and an MIC [10, 12] of 0.08 µg/mL. The MIC ([11]; in vitro) was 0.02 µg/mL.
For `CO/N=C(\C(=O)N[C@@H]1C(=O)N2C(C(=O)[O-])=C(CSc3nc(=O)cnn3C)CS[C@H]12)c1csc(N)n1.[Na+]`, the LD100 ([1]; i.v.) was 1000 mg/kg, the LD100 ([1]; p.o.) was > 5000 mg/kg and the LD100 ([1]; s.c.) was > 5000 mg/kg. For the same compound, the MIC [2] was 0.16 µg/mL, the MIC [3] was 0.04 µg/mL and the MIC ([4]; Pseudomonas aeruginosa, 2, read-out: Minimum inhibitory concentration) was 40 µg/mL. For the same compound, the MIC [5] was 0.02 µg/mL, the MIC [6] was 2.5 µg/mL and the MIC ([7]; Pseudomonas aeruginosa, 1, read-out: Minimum inhibitory concentration) was 40 µg/mL. For the same compound, the MIC [8] was 0.02 µg/mL, the MIC [9] was 2.5 µg/mL and the MIC [10] was 0.04 µg/mL. The MIC [11] was 0.02 µg/mL.

From US4482551A, “Cephalosporin derivatives” (Hoffmann-La Roche Inc., priority 1982, dated 1984)
